Values of other authors, collected in paper PMC11647681, “Discovery of Non-Covalent Inhibitors for SARS-CoV-2 PLpro: Integrating Virtual Screening, Synthesis, and Experimental Validation” (ACS Medicinal Chemistry Letters, 2024).

System: SARS-CoV-2, and its variants
Design: method as in PMID 38547259
Details: cited from earlier work

CCn1ccc(-c2cc(-c3cnn(C)c3)cc([C@@H](C)NC(=O)c3cc(OCCN(C)C)ccc3C)c2)n1 [Jun12682]
activity against SARS-CoV-2, and its variants, in vivo: confirmed
